What all share (assay type): cell-based, human
In assay [1] the test system is hindbrain R1 neuroepithelial cells. Put plainly: NE progenitor fate specification of hindbrain R1 neuroepithelial cells (qPCR of MASH1, PHOX2B, PHOX2A and regional markers). The conditions noted are these: for effect on expression of MASH1, PHOX2B, and PHOX2A: day 6 to day 12. The source says: (§1) On day 5, change the medium without SB431542. […] Cells were feed daily.
Development of NE neurons in LC depends on expression of Mash1, Phox2b and Phox2a in a stage dependent manner. See Pattyn et al., 2000, Mol Cell Neurosci, 15:235-243; Morin et al., 1997, Neuron, 18:411-423; Hirsch et al., 1998, Development, 125:599-608. Mash1 is expressed in the proliferative progenitor cells, while Phox2b and Phox2a are expressed when cells became postmitotic precursors and neurons. Pattyn et al., 2000. […] Thus, the effects of FGF8 and BMPs were tested in the second week of differentiation (FIG. 2B).
In further experiments it was determined whether the unique role of Activin A on human NE neuron specification was regional identity dependent. Neuroepithelial cells ranging from anterior forebrain to posterior hindbrain were obtained using different doses of CHIR99021, and then these neuroepithelial cells were treated with 25 ng/ml Activin A for 6 days.
Specifically, gene expression of MASH1 and PHOX2A/2B at different times was observed when NE progenitors were cultured in the presence of a low dose of Activin A (25 ng/ml) or a high dose of Activin A (125 ng/ml).
To determine whether blockade of BMP pathway or SHH pathway could facilitate NE specification, which could narrow the domain along the dorsal to ventral axis, hindbrain R1 neuroepithelial cells were treated with Activin A with or without BMP and SHH antagonist (FIGS. 3D-3I).
In general terms: Real-time PCR tracks product formation cycle by cycle.

The test system of assay [2] is GRABNE1m sensor-expressing NE neurons. Put plainly: Fluorescence imaging of GRABNE1m sensor cells. The conditions noted are these: 1 μM.
The subject of another assay is hESCs (H9 line). Put plainly: Patterning of hESCs to hindbrain R1 neuroepithelial cells with a CHIR99021 dose series (RT-qPCR, flow cytometry, immunocytochemistry). Here is the method:
as §1
gRNA was designed according to Benchling. Donor plasmid was generated by NEBuilder® HiFi DNA Assembly Master Mix (NEB, E2621S). Briefly, hPSCs were digested by TrypLE Express. Gene Pulser Xcell (Bio-Rad) was used for CRISPR/Cas9 delivery. Two-million cells were electroporated with 15 μg of sgRNA plasmid (pLenti-CRISPR) with 30 μg donor plasmid. Cells were plated at ˜150,000 cells/well of 6-well plate. Starting 24 hours after electroporation, 0.5 μg/ml puromycin were added to the culture medium. After 3 days of puromycin selection, hPSCs were switched to their normal culture medium and fed every other day until approximately 1-2 weeks after electroporation when distinct colonies were established. • Cell transplantation: Small aggregates of NE neural progenitors (day 10-day 12) were collected and suspended in artificial cerebral spinal fluid (aCSF) containing Rock inhibitor (0.5 μM), at a concentration of 100,000 cells/μl. 1 μl of cells were slowly injected into the left cortex (AP=+0.0 mm, ML=+1.8 mm, DV=−1.7 mm, from skull) of adult SCID mice (8-12 weeks) that were anesthetized with 1%-2% isoflurane mixed in oxygen. • Immunocytochemistry and flow cytometry: Immunocytochemistry was performed as described previously. See Huang et al., 2016, Sci Rep, 6:32600, doi:10.1038/srep32600. In brief, cells on coverslips were fixed in 4% neutral-buffered paraformaldehyde (PFA) for 10 minutes (min) at room temperature. Following rinsing with PBS, these cells were incubated in 0.2% Triton X-100 (in phosphate buffered saline (PBS)) for 10 min followed by 10% donkey serum (in PBS) at room temperature for 1 hour (h). The cells were then incubated with primary antibodies diluted in 5% donkey serum in 0.1% Triton X100 (in PBS) at 4° C. overnight, followed by fluorescently conjugated secondary antibodies at room temperature for 30 min. The nuclei were stained with Hoechst. Images were collected with a Nikon A1 laser-scanning confocal microscope. Flow cytometry was performed using Transcription Factor Buffer Set which is designed for transcription factor staining following manufacturer's instruction. Briefly, single cells were prepared using TrypLE Express Enzyme and fixed in the fixation buffer provided by the kit at 2-8° C. for 45 min. After 3 washings with the permeable buffer, primary antibodies were added to cells for 45 min at 2-8° C. in a light-tight box. Cells were washed three times before fluorescently conjugated secondary antibodies. Second antibodies were incubated with cells for 45 minutes at 2-8° C. in a light-tight box and followed by washing three times. After the last wash, cells were suspended in washing buffer and analyzed by flow cytometry (BD LSR or BD LSRII). Data analysis was performed using FlowJo. • ELISA: To detect NE release into medium during neuronal differentiation, supernatant was collected at indicated time points along differentiation. Enzyme-linked immunosorbent assay (ELISA) were performed using a Noradrenaline (Norepinephrine) ELISA Assay Kit (EAGLE, NOR31-K01) following the manufacturer's instructions. • Electrophysiology: Whole-cell patch-clamp recordings were made from human ESC-derived NE neurons at 4 weeks. Briefly, the NE neurons were held at −70 mV to record the Na+/K+ channel activities with voltage-clamp model. For recording action potentials, the cells were held at 0 pA with the current-clamp model, and with the steps of injected currents from −50 pA to +50 pA. The bath solution consisted of 135 mM NaCl, 3 mM KCl, 2 mM CaCl2), 1 mM MgCl2, 10 mM HEPES, 11 mM glucose, 10 mM sucrose, pH7.4. […]

For the molecule TGF-β1: transforming growth factor β1, in assay [1] (10 ng/ml), the “effect on expression of MASH1, PHOX2B, and PHOX2A” value (from here on “effect on expression of MASH1”) is “not”.

As to `CC1=C2C[C@H]3[C@@H](CC=C4C[C@@H](O)CC[C@@]43C)[C@@H]2CC[C@]12O[C@@H]1C[C@H](C)CN[C@H]1[C@H]2C` [cyclopamine], in assay [1] (2 μM, with Activin A), the “effect on NE progenitor markers MASH1 and PHOX2A/2B” value is recorded as “only minor effects”; the “expression of dorsal markers MATH1 and OLIG3” value is on record as “increased expression”.

Regarding `CC(C)Oc1ccc(-c2cnc3c(-c4ccnc5ccccc45)cnn3c2)cc1` [DMH1, 4-[6-(4-Isopropoxyphenyl)pyrazolo[1,5-a]pyrimidin-3-yl]quinoline], the “increase of NE progenitor markers” value in assay [1] (2 μM, with Activin A) is recorded as 1.5 fold.

Turning to `NC[C@H](O)c1ccc(O)c(O)c1` [Norepinephrine], in assay [2], the “intensity of GRABNE1m sensor fluorescence” value is given as “increased”.

For `Cc1c[nH]c(-c2cnc(NCCNc3ccc(C#N)cn3)nc2-c2ccc(Cl)cc2Cl)n1` [CHIR99021], in the assay with hESCs (H9 line) (1 μM, day 6), the “cells expressing EN1 by immunocytochemistry” value is listed as “majority of the cells”; the “cells positive for OTX2 and HOXA2 by immunocytochemistry” value is reported as “few or no cells”. Also, the “concentration above which EN1, EN2, PAX2 mRNA began to down-regulate and HOXA2, GBX2 increased” value in the assay on hESCs (H9 line) (6 days, mRNA level) is listed as “above 0.6 μM”. For the same molecule, in the assay with hESCs (H9 line) (dose increment, 6 days), the “concentration at which PHOX2B and PHOX2A reached their highest level” value is “around 1 μM”. Besides, the “expression of midbrain transcription factor genes EN1, EN2, PAX2” value in the assay on hESCs (H9 line) (increasing concentrations over 6 days) is “upregulated”. In addition, the “expression of OTX2 at mRNA and protein levels” value in the assay on hESCs (H9 line) (increasing concentrations over 6 days, RT-qPCR and flow cytometry) was “down-regulated”.

B1: BMP5: bone morphogenetic protein (protein, UniProt P22003 317-454, looked up)
Bone morphogenetic protein 5: AANKRKNQNRNKSSSHQDSSRMSSVGDYNTSEQKQACKKHELYVSFRDLGWQDWIIAPEGYAAFYCDGECSFPLNAHMNATNHAIVQTLVHLMFPDHVPKPCCAPTKLNAISVLYFDDSSNVILKKYRNMVVRSCGCH
Take B1: the “effect on expression of MASH1” value in assay [1] (10 ng/ml) was “no obvious effects”.

B2: Activin A: ligand in TGF-β pathway directing NE cell fate specification (protein, UniProt P08476 311-426, looked up)
Inhibin beta A chain: GLECDGKVNICCKKQFFVSFKDIGWNDWIIAPSGYHANYCEGECPSHIAGTSGSSLSFHSTVINHYRMRGHSPFANLKSCCVPTKLRPMSMLYYDDGQNIIKKDIQNMIVEECGCS
For the molecule B2, in assay [1], the “concentration at which MASH1 reached maximum expression level” value came out at 25 ng/mL; the “concentration at which PHOX2B and PHOX2A reached maximum level” value is 250 ng/mL. Besides, in assay [1] (10 ng/ml), the “effect on expression of MASH1” value is “positive effect”. For the same molecule, in assay [1] (day 9), the “PHOX2B expression, high dose (125 ng/ml) versus low dose (25 ng/ml)” value is “similar”. Further, the “MASH1 expression, high dose (125 ng/ml) versus low dose (25 ng/ml)” value in assay [1] (day 9 to day 12) is “no obvious difference”. In addition, the “PHOX2B expression, high dose (125 ng/ml) versus low dose (25 ng/ml)” value in assay [1] (day 12) is recorded as “over 2 fold”. Further, the “increase of MASH1, PHOX2B, and PHOX2A expression with dose” value in assay [1] (series of Activin A concentrations) is reported as “dose-dependent manner”.

B3: BMP4: bone morphogenetic protein (protein, UniProt P12644 293-408, looked up)
Bone morphogenetic protein 4: SPKHHSQRARKKNKNCRRHSLYVDFSDVGWNDWIVAPPGYQAFYCHGDCPFPLADHLNSTNHAIVQTLVNSVNSSIPKACCVPTELSAISMLYLDEYDKVVLKNYQEMVVEGCGCR
For the molecule B3, the “effect on expression of MASH1” value in assay [1] (10 ng/ml) is reported as “no obvious effects”.

B4: BMP7: bone morphogenetic protein (protein, UniProt P18075 293-431, looked up)
Bone morphogenetic protein 7: STGSKQRSQNRSKTPKNQEALRMANVAENSSSDQRQACKKHELYVSFRDLGWQDWIIAPEGYAAYYCEGECAFPLNSYMNATNHAIVQTLVHFINPETVPKPCCAPTQLNAISVLYFDDSSNVILKKYRNMVVRACGCH
As for B4, in assay [1] (10 ng/ml), the “effect on expression of MASH1” value is given as “no obvious effects”.

B5: FGF8: growth factor tested for NE fate specification (protein, UniProt P55075 23-233, looked up)
Fibroblast growth factor 8: QEGPGRGPALGRELASLFRAGREPQGVSQQHVREQSLVTDQLSRRLIRTYQLYSRTSGKHVQVLANKRINAMAEDGDPFAKLIVETDTFGSRVRVRGAETGLYICMNKKGKLIAKSNGKGKDCVFTEIVLENNYTALQNAKYEGWYMAFTRKGRPRKGSKTRQHQREVHFMKRLPRGHHTTEQSLRFEFLNYPPFTRSLRGSQRTWAPEPR
Take B5: in assay [1] (100 ng/ml), the “effect on expression of MASH1” value is “no obvious effects”.

Source of the values: patent US12297453B2, “Generation of norepinephrine neurons from human stem cells” (Wisconsin Alumni Research Foundation, priority 2020, dated 2025).
